Experimental data as given in US12065442B2, “Tropomyosin receptor kinase (TRK) degradation compounds and methods of use” (Cullgen (Shanghai), Inc., priority 2018, dated 2024).

Test system: KM12 cells
Test: Cell viability assay (CellTiter-Glo) in KM12 cells
Format: cell-based
Details: Homo sapiens, 72 h; Table 2; KM12 cell viability, CellTiter-Glo, 3 days; read-out: IC50

| SMILES | IC50 |
| --- | --- |
| O=C1CCC(N2C(=O)c3cccc(NCCCC(=O)N4CCN(c5cccc(-c6cnc7ccc(N8CCC[C@@H]8c8cccc(F)c8)nn67)n5)CC4)c3C2=O)C(=O)N1 (stereo partly drawn) [CPD-013, 2-(2,6-Dioxopiperidin-3-yl)-4-((4-(4-(6-(6-((R)-2-(3-fluorophenyl)pyrrolidin-1-yl)imidazo[1,2-b]pyridazin-3-yl)pyridin-2-yl)piperazin-1-yl)-4-oxobutyl)amino)isoindoline-1,3-dione] | 10.2 nM |
| O=C1CCC(N2C(=O)c3cccc(NCCCCC(=O)N4CCN(c5cccc(-c6cnc7ccc(N8CCC[C@@H]8c8cccc(F)c8)nn67)n5)CC4)c3C2=O)C(=O)N1 (stereo partly drawn) [CPD-014, 2-(2,6-Dioxopiperidin-3-yl)-4-((5-(4-(6-(6-((R)-2-(3-fluorophenyl)pyrrolidin-1-yl)imidazo[1,2-b]pyridazin-3-yl)pyridin-2-yl)piperazin-1-yl)-5-oxopentyl)amino)isoindoline-1,3-dione] | 7.9 nM |
| O=C1CCC(N2C(=O)c3cccc(NCCCCCC(=O)N4CCN(c5cccc(-c6cnc7ccc(N8CCC[C@@H]8c8cccc(F)c8)nn67)n5)CC4)c3C2=O)C(=O)N1 (stereo partly shown) [CPD-015] | 14.9 nM |
| Cc1ncsc1-c1ccc(CNC(=O)[C@@H]2C[C@@H](O)CN2C(=O)[C@@H](NC(=O)CCOCCOCCOCCC(=O)N2CCN(c3cccc(-c4cnc5ccc(N6CCC[C@@H]6c6cccc(F)c6)nn45)n3)CC2)C(C)(C)C)cc1 [CPD-016, (2S,4R)-1-((S)-2-(tert-butyl)-16-(4-(6-(6-((R)-2-(3-Fluorophenyl)pyrrolidin-1-yl)imidazo[1,2-b]pyridazin-3-yl)pyridin-2-yl)piperazin-1-yl)-4,16-dioxo-7,10,13-trioxa-3-azahexadecanoyl)-4-hydroxy-N-(4-(4-methylthiazol-5-yl)benzyl)pyrrolidine-2-carboxamide] | 150 nM |
| Cc1ncsc1-c1ccc(CNC(=O)[C@@H]2C[C@@H](O)CN2C(=O)[C@@H](NC(=O)CCCCCCCCC(=O)N2CCN(c3cccc(-c4cnc5ccc(N6CCC[C@@H]6c6cccc(F)c6)nn45)n3)CC2)C(C)(C)C)cc1 [CPD-017, (2S,4R)-1-((S)-2-(10-(4-(6-(6-((R)-2-(3-Fluorophenyl)pyrrolidin-1-yl)imidazo[1,2-b]pyridazin-3-yl)pyridin-2-yl)piperazin-1-yl)-10-oxodecanamido)-3,3-dimethylbutanoyl)-4-hydroxy-N-(4-(4-methylthiazol-5-yl)benzyl)pyrrolidine-2-carboxamide] | 145 nM |
| Cc1ncsc1-c1ccc(CNC(=O)[C@@H]2C[C@@H](O)CN2C(=O)[C@@H](NC(=O)CCCCCCCC(=O)N2CCN(c3cccc(-c4cnc5ccc(N6CCC[C@@H]6c6cccc(F)c6)nn45)n3)CC2)C(C)(C)C)cc1 [CPD-018, (2S,4R)-1-((S)-2-(9-(4-(6-(6-((R)-2-(3-Fluorophenyl)pyrrolidin-1-yl)imidazo[1,2-b]pyridazin-3-yl)pyridin-2-yl)piperazin-1-yl)-9-oxononanamido)-3,3-dimethylbutanoyl)-4-hydroxy-N-(4-(4-methylthiazol-5-yl)benzyl)pyrrolidine-2-carboxamide] | 258 nM |
| Cc1ncsc1-c1ccc(CNC(=O)[C@@H]2C[C@@H](O)CN2C(=O)[C@@H](NC(=O)CCOCCOCCOCCOCCC(=O)N2CCN(c3cccc(-c4cnc5ccc(N6CCC[C@@H]6c6cccc(F)c6)nn45)n3)CC2)C(C)(C)C)cc1 [CPD-019, (2S,4R)-1-((S)-2-(tert-butyl)-19-(4-(6-(6-((R)-2-(3-Fluorophenyl)pyrrolidin-1-yl)imidazo[1,2-b]pyridazin-3-yl)pyridin-2-yl)piperazin-1-yl)-4,19-dioxo-7,10,13,16-tetraoxa-3-azanonadecanoyl)-4-hydroxy-N-(4-(4-methylthiazol-5-yl)benzyl)pyrrolidine-2-carboxamide] | 500 nM |
